Laboratory results reported in patent US12076331B2, “Inositol derivatives for use in pathological crystallization” (ETH Zurich, priority 2015, dated 2024).

System: RPTEC/TERT 1 human proximal tubule cells
Assay: Imaging assay of CaP adhesion/deposition and cellular changes on RPTEC monolayers
Format: cell-based
Description: (A) Heatmap and hierarchical clustering of extracted image features. (B) Selected single features describing cellular changes upon increasing (OEG2)2-IP4 concentrations are depicted. Total cell count, dead cell count, single cell area and single cell solidity, a measure of cell compactness, are shown. (C) Selected single features describing changes in the CaP deposition and membrane pattern upon increasing (OEG2)2-IP4 concentrations are depicted. The total area of the binary calcein staining, colorimetric quantification of calcium content extracted from the monolayer, the maximum intensity of the calcein fluorescence, structural similarity index metric (SSIM) and the correlation of the CellMask channel image are shown. (D) Example brightfield, calcein, CellMask and EthD channel images and two zoomed-in regions of interests (ROI) of RPTEC treated with 13 μM (OEG2)2-IP4 are shown. Mean scaled values per individual experiment are plotted (N=3). Pos.ctrl presents treatment with 5/7 mM Ca/P, neg.ctrl presents medium without Ca/P spiking (=1/1 mM Ca/P present in normal cell medium). Mean of three individual experiments and SD is plotted as grey horizontal and vertical line respectively, one-way ANOVA with Dunnet's multiple comparison between each concentration to pos. ctrl was performed (* p<0.01).
RPTEC/TERT 1 monolayers at confluence were treated with medium spiked with 7 mM disodium phosphate, 5 mM calcium chloride and compound and were incubated for 24 h. The amount of CaP deposits and the extent of cell injury were detected by calcein and EthD staining, respectively. Fluorescence images were quantified using Matlab. Quantification of the area covered with CaP deposition on RPTEC monolayers with (A) OEG2-IP5, (B) OEG11-IP5, (C) (OEG2)2-IP4, and (D) OEG8-(IP5)2 treatment. (N=3, mean+SD, one-way ANOVA with Dunnett's multiple comparison, * p<0.05, ** p<0.01, *** p<0.001).
RPTEC/TERT 1 human proximal tubule cells (RPTEC) were cultured in T75 tissue culture flasks using ProxUp basal medium mixed with ProxUp supplements at 37° C. and 5% CO2 according to manufacturer's recommendations. Cells were used up to passage 30 and regularly tested for Mycoplasma infections. For experiments, RPTEC were cultured in 24-well plates at a seeding density of 150′000 cells/cm^2. Cell viability assessment and cell counting before seeding was performed using an automated cell counter (BioRad TC 20, Hercules, CA, USA).
For the comparison of selected IP6 analogues, ProxUp basal medium was prepared with the selected inhibitor and added to each well. Then, CaP precipitation was induced by direct addition of first, phosphate and second, calcium. Final concentrations of 7 mM phosphate and 5 mM calcium were used. Cells were incubated for 24 h at 37° C. and 5% CO2. Spiked medium was removed, and cells were washed twice with PBS before staining.
For staining, ProxUp basal medium was mixed with calcein (500 nM final concentration), EthD (6 μM final concentration), CellMask stain ([…]) and Hoechst 33342. Staining mixture was added to RPTEC and cells were incubated for 30 min in the dark at 37° C. and 5% CO2. Staining solution was removed, cells were washed with PBS once and ProxUp basal medium was added. Cells were immediately imaged after staining. Images were obtained by epifluorescence microscopy at 37° C., using a Leica CTR6000 microscope. For quantification 3 wells/condition were prepared and 3 images/well were taken. For preliminary adhesion experiments images were taken with a 10× objective, for the imaging assay 20× objective images were taken.
Multichannel images were saved as individual channel images in 8-bit tiff format. For analysis Hoechst channel images were thresholded using the triangle threshold. Touching nuclei of the binary image were further segmented using the watershed algorithm with the distance transform of the binary image as input and local maxima thereof as seeds. […]

[1] = 6-50 μM, 5/7 mM Ca/P, compared to the positive ctrl
[2] = RPTEC, 7 mM phosphate, 5 mM calcium, 24 h

SMILES: COCCOCCO[C@@H]1C(OP(=O)(O)O)[C@H](OCCOCCOC)[C@@H](OP(=O)(O)O)C(OP(=O)(O)O)[C@H]1OP(=O)(O)O (stereo partly shown) [(OEG2)2-IP4]
- number of dead cells [1]: dose-dependently reduced
- single cell area [1]: dose-dependently reduced
- single cell solidity [1]: increased
- total cell count/field of view [1]: increased
- total CaP area (6 and 13 μM, 5/7 mM Ca/P, compared to the positive ctrl): reduction
- concentration achieving complete inhibition of CaP adhesion [2]: 50 µM
- concentration down to which CaP adhesion was drastically reduced [2]: 12.5 µM
